Experimental data reported in PubChem BioAssay (NCI).
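Each compound was tested at five concentrations against cells in 96-well plates for 48 hours. Abbreviation: GI50, concentration required for 50% inhibition of growth. TGI: concentration producing complete growth inhibition.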

Tests used:
Assay in all cases: NCI-60 cell line screen, 48 h
HCC-2998 colon = tested on: HCC-2998 colon
HCT-15 colon = tested on: HCT-15 colon
KM12 colon = tested on: KM12 colon
DU-145 prostate = tested on: DU-145 prostate
TK-10 renal = tested on: TK-10 renal
HCT-116 colon = tested on: HCT-116 colon
HS 578T breast = tested on: HS 578T breast
SF-295 CNS = tested on: SF-295 CNS
SN12C renal = tested on: SN12C renal
IGROV1 ovarian = tested on: IGROV1 ovarian
NCI-H460 lung = tested on: NCI-H460 lung
U251 CNS = tested on: U251 CNS
SF-539 CNS = tested on: SF-539 CNS
A549 NSCLC = tested on: A549 NSCLC
LOX IMVI melanoma = tested on: LOX IMVI melanoma
SK-MEL-5 melanoma = tested on: SK-MEL-5 melanoma
EKVX NSCLC = tested on: EKVX NSCLC
RXF 393 renal = tested on: RXF 393 renal
786-0 renal = tested on: 786-0 renal
UACC-62 melanoma = tested on: UACC-62 melanoma
NCI-H23 lung = tested on: NCI-H23 lung
NCI-H226 lung = tested on: NCI-H226 lung
PC-3 prostate = tested on: PC-3 prostate
M14 melanoma = tested on: M14 melanoma
SF-268 CNS = tested on: SF-268 CNS
MCF7 breast = tested on: MCF7 breast
A498 renal = tested on: A498 renal
HOP-62 NSCLC = tested on: HOP-62 NSCLC
NCI/ADR-RES ovarian = tested on: NCI/ADR-RES ovarian
MOLT-4 leukemia = tested on: MOLT-4 leukemia
UO-31 renal = tested on: UO-31 renal
MDA-MB-231 breast = tested on: MDA-MB-231 breast
OVCAR-8 ovarian = tested on: OVCAR-8 ovarian
UACC-257 melanoma = tested on: UACC-257 melanoma
RPMI-8226 leukemia = tested on: RPMI-8226 leukemia
OVCAR-3 ovarian = tested on: OVCAR-3 ovarian
SNB-19 CNS = tested on: SNB-19 CNS
HL-60(TB) leukemia = tested on: HL-60(TB) leukemia
SK-MEL-2 melanoma = tested on: SK-MEL-2 melanoma
CAKI-1 renal = tested on: CAKI-1 renal
OVCAR-5 ovarian = tested on: OVCAR-5 ovarian
SW-620 colon = tested on: SW-620 colon
ACHN renal = tested on: ACHN renal
MDA-MB-435 = tested on: MDA-MB-435
OVCAR-4 ovarian = tested on: OVCAR-4 ovarian
T-47D breast = tested on: T-47D breast
SNB-75 CNS = tested on: SNB-75 CNS
SK-MEL-28 melanoma = tested on: SK-MEL-28 melanoma
MALME-3M melanoma = tested on: MALME-3M melanoma
SR leukemia = tested on: SR leukemia
SK-OV-3 ovarian = tested on: SK-OV-3 ovarian
HT29 colon = tested on: HT29 colon
COLO 205 colon = tested on: COLO 205 colon
K-562 leukemia = tested on: K-562 leukemia
NCI-H522 lung = tested on: NCI-H522 lung

Compound O=[N+]([O-])c1ccc(/C=C/c2nc3ccc(Cl)cc3[nH]2)cc1 has a GI50 (HCC-2998 colon) of 19.5 µM, a TGI (HCC-2998 colon) of 88.1 µM and a GI50 (HCT-15 colon) of 11.7 µM. The TGI (HCT-15 colon) was > 100 µM, the GI50 (KM12 colon) was 5.6 µM and the TGI (KM12 colon) was > 100 µM. The GI50 (DU-145 prostate) was 19.4 µM, the TGI (DU-145 prostate) was 66.6 µM and the GI50 (TK-10 renal) was 28.2 µM. The TGI (TK-10 renal) was > 100 µM, the GI50 (HCT-116 colon) was 15.7 µM and the TGI (HCT-116 colon) was 37.6 µM. The GI50 (HS 578T breast) was 68.2 µM, the TGI (HS 578T breast) was > 100 µM and the GI50 (SF-295 CNS) was 39.9 µM. For the same compound, the TGI (SF-295 CNS) was > 100 µM, the GI50 (SN12C renal) was 24 µM and the TGI (SN12C renal) was 91 µM. The GI50 (IGROV1 ovarian) was 35.7 µM, the TGI (IGROV1 ovarian) was > 100 µM and the GI50 (NCI-H460 lung) was 17.8 µM. For the same compound, the TGI (NCI-H460 lung) was 84.9 µM, the GI50 (U251 CNS) was 16.3 µM and the TGI (U251 CNS) was 35.3 µM. The GI50 (SF-539 CNS) was 15.9 µM, the TGI (SF-539 CNS) was 39.4 µM and the GI50 (A549 NSCLC) was 37.8 µM. For the same compound, the TGI (A549 NSCLC) was > 100 µM, the GI50 (LOX IMVI melanoma) was 27.2 µM and the TGI (LOX IMVI melanoma) was > 100 µM. For the same compound, the GI50 (SK-MEL-5 melanoma) was 31.6 µM, the TGI (SK-MEL-5 melanoma) was > 100 µM and the GI50 (EKVX NSCLC) was > 100 µM. For the same compound, the TGI (EKVX NSCLC) was > 100 µM, the GI50 (RXF 393 renal) was 71.7 µM and the TGI (RXF 393 renal) was > 100 µM. The GI50 (786-0 renal) was 18.7 µM, the TGI (786-0 renal) was 43.3 µM and the GI50 (UACC-62 melanoma) was > 100 µM. The TGI (UACC-62 melanoma) was > 100 µM, the GI50 (NCI-H23 lung) was 54.5 µM and the TGI (NCI-H23 lung) was > 100 µM. For the same compound, the GI50 (NCI-H226 lung) was 45.9 µM, the TGI (NCI-H226 lung) was > 100 µM and the GI50 (PC-3 prostate) was 21.8 µM. For the same compound, the TGI (PC-3 prostate) was > 100 µM, the GI50 (M14 melanoma) was > 100 µM and the TGI (M14 melanoma) was > 100 µM. The GI50 (SF-268 CNS) was > 100 µM, the TGI (SF-268 CNS) was > 100 µM and the GI50 (MCF7 breast) was 21.5 µM. The TGI (MCF7 breast) was > 100 µM, the GI50 (A498 renal) was 13.9 µM and the TGI (A498 renal) was 44.2 µM. The GI50 (HOP-62 NSCLC) was 37.7 µM, the TGI (HOP-62 NSCLC) was > 100 µM and the GI50 (NCI/ADR-RES ovarian) was 15 µM. For the same compound, the TGI (NCI/ADR-RES ovarian) was > 100 µM, the GI50 (MOLT-4 leukemia) was 59.7 µM and the TGI (MOLT-4 leukemia) was > 100 µM. The GI50 (UO-31 renal) was 30 µM, the TGI (UO-31 renal) was > 100 µM and the GI50 (MDA-MB-231 breast) was 26.5 µM. The TGI (MDA-MB-231 breast) was > 100 µM, the GI50 (OVCAR-8 ovarian) was 24.5 µM and the TGI (OVCAR-8 ovarian) was 63.6 µM. The GI50 (UACC-257 melanoma) was > 100 µM, the TGI (UACC-257 melanoma) was > 100 µM and the GI50 (RPMI-8226 leukemia) was 31.4 µM. The TGI (RPMI-8226 leukemia) was > 100 µM, the GI50 (OVCAR-3 ovarian) was 22.4 µM and the TGI (OVCAR-3 ovarian) was 65.1 µM. The GI50 (SNB-19 CNS) was > 100 µM, the TGI (SNB-19 CNS) was > 100 µM and the GI50 (HL-60(TB) leukemia) was > 100 µM. For the same compound, the TGI (HL-60(TB) leukemia) was > 100 µM, the GI50 (SK-MEL-2 melanoma) was > 100 µM and the TGI (SK-MEL-2 melanoma) was > 100 µM. The GI50 (CAKI-1 renal) was 34.6 µM, the TGI (CAKI-1 renal) was 91 µM and the GI50 (OVCAR-5 ovarian) was > 100 µM. For the same compound, the TGI (OVCAR-5 ovarian) was > 100 µM, the GI50 (SW-620 colon) was 28.7 µM and the TGI (SW-620 colon) was > 100 µM. It also gave a GI50 (ACHN renal) of 17.8 µM, a TGI (ACHN renal) of 50.9 µM and a GI50 (MDA-MB-435) of 5.36 µM. The TGI (MDA-MB-435) was > 100 µM, the GI50 (OVCAR-4 ovarian) was 74 µM and the TGI (OVCAR-4 ovarian) was > 100 µM. For the same compound, the GI50 (T-47D breast) was 28.8 µM, the TGI (T-47D breast) was > 100 µM and the GI50 (SNB-75 CNS) was 76.9 µM. For the same compound, the TGI (SNB-75 CNS) was > 100 µM, the GI50 (SK-MEL-28 melanoma) was > 100 µM and the TGI (SK-MEL-28 melanoma) was > 100 µM. The GI50 (MALME-3M melanoma) was > 100 µM, the TGI (MALME-3M melanoma) was > 100 µM and the GI50 (SR leukemia) was 4.95 µM. For the same compound, the TGI (SR leukemia) was > 100 µM, the GI50 (SK-OV-3 ovarian) was > 100 µM and the TGI (SK-OV-3 ovarian) was > 100 µM. For the same compound, the GI50 (HT29 colon) was 17.8 µM, the TGI (HT29 colon) was > 100 µM and the GI50 (COLO 205 colon) was > 100 µM. The TGI (COLO 205 colon) was > 100 µM, the GI50 (K-562 leukemia) was 5.99 µM and the TGI (K-562 leukemia) was > 100 µM. For the same compound, the GI50 (NCI-H522 lung) was 14.1 µM and the TGI (NCI-H522 lung) was > 100 µM.
